Format in all cases: functional
Assay [1] concerns Mycobacterium tuberculosis. The experiment in a line: Antitubercular activity against Mycobacterium tuberculosis H37Rv by Lowensteine-Jensen method.
Assay [2] deals with Mycobacterium tuberculosis. Put plainly: Antitubercular activity against Mycobacterium tuberculosis H37Rv.
The test system of assay [3] is Mycobacterium tuberculosis. The experiment in a line: Antitubercular activity against Mycobacterium tuberculosis spec.192.
Assay [4] relates to Mycobacterium tuberculosis. The experiment in a line: Antitubercular activity against Mycobacterium tuberculosis spec.210.

≈ marks a conversion by molar mass, not a printed value.

Consider `COc1ccc(C2C(Cl)C(=O)N2C(=O)NCCCn2ncc3ccc([N+](=O)[O-])cc32)cc1` (stereo unspecified), for which, in assay [1], the MIC lay within 6.25 to 50 µg/mL (≈ 13.7 to 109 µM).

In assay [1], `O=C(NCCCn1ncc2ccc([N+](=O)[O-])cc21)N1C(=O)C(Cl)C1c1ccccc1[N+](=O)[O-]` (stereo unspecified) had an MIC of 6.25 to 50 µg/mL (≈ 13.2 to 106 µM).

For the compound `CCc1ccc(-n2cc(Cn3ncc4c3CCN(C(=O)Nc3ccccc3)C4)nn2)cc1`, the minimal inhibitory concentration (MIC) in assay [2] lay in the range of 24.7 to 200 µM; in assay [3] it was 24.7 to 200 µM (≈ 10.6 to 85.5 µg/mL); in assay [4] it was 24.7 to 200 µM (≈ 10.6 to 85.5 µg/mL).

With `O=C(NCCCn1ncc2ccc([N+](=O)[O-])cc21)N1C(=O)C(Cl)C1c1ccccc1O` (stereo unspecified), the MIC in assay [1] was 6.25 to 50 µg/mL (≈ 14.1 to 113 µM).

As for `CCOC(=O)C1=C(C)NC(C)=C(C(=O)OCC)C1c1cn(-c2ccccc2)nc1-c1ccc(Br)cc1`, the MIC in assay [2] worked out at 0.02 µg/mL.

`O=C(NCCCn1ncc2ccc([N+](=O)[O-])cc21)N1C(=O)C(Cl)C1c1ccccc1` (stereo unspecified) returned an MIC in assay [1] of 6.25 to 50 µg/mL (≈ 14.6 to 117 µM).

With `O=C(Nc1ccccc1)N1CCc2c(cnn2Cc2cn(-c3ccc(Br)c(OC(F)(F)F)c3)nn2)C1`, the MIC is 24.7 to 200 µM in assay [2], 24.7 to 200 µM (≈ 13.9 to 112 µg/mL) in assay [3] and 24.7 to 200 µM (≈ 13.9 to 112 µg/mL) in assay [4].

As to `CCOC(=O)C1=C(C)NC(C)=C(C(=O)OCC)C1c1cn(-c2ccccc2)nc1-c1ccc(F)cc1`, in assay [2], the minimal inhibitory concentration (MIC) amounted to 0.02 µg/mL.

In assay [1], `O=C(NCCCn1ncc2ccc([N+](=O)[O-])cc21)N1C(=O)C(Cl)C1c1ccc([N+](=O)[O-])cc1` (stereo unspecified) yielded an MIC of 6.25 to 50 µg/mL (≈ 13.2 to 106 µM).

Compound `COc1cccc(C2C(Cl)C(=O)N2C(=O)NCCCn2ncc3ccc([N+](=O)[O-])cc32)c1` (stereo unspecified) had a minimal inhibitory concentration (MIC) in assay [1] of 6.25 to 50 µg/mL (≈ 13.7 to 109 µM).

For the compound `COC(=O)C1=C(C)NC(C)=C(C(=O)OC)C1c1cn(-c2ccccc2)nc1-c1ccc([N+](=O)[O-])cc1`, 0.02 µg/mL was the least that counted as inhibitory in assay [2] (MIC).

For the compound `O=C(Nc1ccccc1)N1CCc2c(cnn2Cc2cn(-c3ccccc3Cl)nn2)C1`, the minimum inhibitory concentration (MIC) is 24.7 to 200 µM in assay [2], 24.7 to 200 µM (≈ 10.7 to 86.8 µg/mL) in assay [3] and 24.7 to 200 µM (≈ 10.7 to 86.8 µg/mL) in assay [4].

For `O=C(Nc1ccccc1)N1CCc2c(cnn2Cc2cn(-c3ccccc3Br)nn2)C1`, the MIC lay in the range of 24.7 to 200 µM in assay [2], 24.7 to 200 µM (≈ 11.8 to 95.7 µg/mL) in assay [3] and 24.7 to 200 µM (≈ 11.8 to 95.7 µg/mL) in assay [4].

With `CO[C@H]1/C=C/O[C@@]2(C)Oc3c(C)c(O)c4c(O)c(c(/C=N/N5CCN(C)CC5)c(O)c4c3C2=O)NC(=O)/C(C)=C\C=C\[C@H](C)[C@H](O)[C@@H](C)[C@@H](O)[C@@H](C)[C@H](OC(C)=O)[C@@H]1C` [RIFAMPIN], the MIC in assay [1] lay within 0.2 to 4 µg/mL (≈ 0.243 to 4.86 µM).

As to `O=C(Nc1ccccc1)N1CCc2c(cnn2Cc2cn(-c3ccccc3I)nn2)C1`, the figures for the MIC in assay [2], in assay [3] and in assay [4] were 24.7 to 200 µM, 24.7 to 200 µM (≈ 13 to 105 µg/mL) and 24.7 to 200 µM (≈ 13 to 105 µg/mL), respectively.

In turn, `Cc1ccccc1C1C(Cl)C(=O)N1C(=O)NCCCn1ncc2ccc([N+](=O)[O-])cc21` (stereo unspecified) registered an MIC in assay [1] of 6.25 to 50 µg/mL (≈ 14.1 to 113 µM).

Take `O=C(NCCCn1ncc2ccc([N+](=O)[O-])cc21)N1C(=O)C(Cl)C1c1cccc([N+](=O)[O-])c1` (stereo unspecified): in assay [1], the MIC lay in the range of 6.25 to 50 µg/mL (≈ 13.2 to 106 µM).

With `O=C(Nc1ccccc1)N1CCc2c(cnn2Cc2cn(-c3ccc(Cl)c(Cl)c3)nn2)C1`, the MIC in assay [2] was in the range of 24.7 to 200 µM; in assay [3], 24.7 to 200 µM (≈ 11.6 to 93.7 µg/mL); in assay [4], 24.7 to 200 µM (≈ 11.6 to 93.7 µg/mL).

Take `COc1ccccc1C1C(Cl)C(=O)N1C(=O)NCCCn1ncc2ccc([N+](=O)[O-])cc21` (stereo unspecified): the MIC in assay [1] fell in the range of 6.25 to 50 µg/mL (≈ 13.7 to 109 µM).

Take `O=C(Nc1ccccc1)N1CCc2c(cnn2Cc2cn(-c3ccccc3F)nn2)C1`: the MIC fell in the range of 24.7 to 200 µM in assay [2], 24.7 to 200 µM (≈ 10.3 to 83.5 µg/mL) in assay [3] and 24.7 to 200 µM (≈ 10.3 to 83.5 µg/mL) in assay [4].

In turn, `O=C(NCCCn1ncc2ccc([N+](=O)[O-])cc21)N1C(=O)C(Cl)C1c1ccc(O)cc1` (stereo unspecified) yielded a minimum inhibitory concentration (MIC) in assay [1] of 6.25 to 50 µg/mL (≈ 14.1 to 113 µM).

On to `O=C(Nc1ccccc1)N1CCc2c(cnn2Cc2cn(-c3ccc(OC(F)(F)F)cc3)nn2)C1`, for which the figures for the MIC in assay [2], in assay [3] and in assay [4] were 24.7 to 200 µM, 24.7 to 200 µM (≈ 12 to 96.7 µg/mL) and 24.7 to 200 µM (≈ 12 to 96.7 µg/mL), respectively.

Consider `O=C(Nc1ccccc1)N1CCc2c(cnn2Cc2cn(-c3cc(Cl)cc(Cl)c3)nn2)C1`, for which the MIC in assay [2] is 24.7 to 200 µM; in assay [3], 24.7 to 200 µM (≈ 11.6 to 93.7 µg/mL); in assay [4], 24.7 to 200 µM (≈ 11.6 to 93.7 µg/mL).

For `Cc1ccc(-n2cc(Cn3ncc4c3CCN(C(=O)Nc3ccccc3)C4)nn2)cc1`, the values for the MIC in assay [2], in assay [3] and in assay [4] were 24.7 to 200 µM, 24.7 to 200 µM (≈ 10.2 to 82.7 µg/mL) and 24.7 to 200 µM (≈ 10.2 to 82.7 µg/mL), respectively.

With `Cc1cccc(C2C(Cl)C(=O)N2C(=O)NCCCn2ncc3ccc([N+](=O)[O-])cc32)c1` (stereo unspecified), in assay [1], the MIC was in the range of 6.25 to 50 µg/mL (≈ 14.1 to 113 µM).

As for `O=C(Nc1ccccc1)N1CCc2c(cnn2Cc2cn(-c3ccc(Cl)cc3)nn2)C1`, the results for the MIC in assay [2], in assay [3] and in assay [4] were 24.7 to 200 µM, 24.7 to 200 µM (≈ 10.7 to 86.8 µg/mL) and 24.7 to 200 µM (≈ 10.7 to 86.8 µg/mL), respectively.

Regarding `O=C(Nc1ccccc1)N1CCc2c(cnn2Cc2cn(-c3cccc(Cl)c3)nn2)C1`, the MIC in assay [2] fell in the range of 24.7 to 200 µM; in assay [3], 24.7 to 200 µM (≈ 10.7 to 86.8 µg/mL); in assay [4], 24.7 to 200 µM (≈ 10.7 to 86.8 µg/mL).

Consider `O=C(NCCCn1ncc2ccc([N+](=O)[O-])cc21)N1C(=O)C(Cl)C1c1cccc(Cl)c1` (stereo unspecified), for which the minimal inhibitory concentration (MIC) in assay [1] was 6.25 to 50 µg/mL (≈ 13.5 to 108 µM).

Consider `COc1cccc(-n2cc(Cn3ncc4c3CCN(C(=O)Nc3ccccc3)C4)nn2)c1`, for which the MIC in assay [2] lay in the range of 24.7 to 200 µM; in assay [3], 24.7 to 200 µM (≈ 10.6 to 85.9 µg/mL); in assay [4] it was 24.7 to 200 µM (≈ 10.6 to 85.9 µg/mL).

`O=C(NCCCn1ncc2ccc([N+](=O)[O-])cc21)N1C(=O)C(Cl)C1c1ccc(Cl)cc1` (stereo unspecified) gave an MIC in assay [1] of 6.25 µg/mL (≈ 13.5 µM).

With `O=C(Nc1ccccc1)N1CCc2c(cnn2Cc2cn(-c3ccc(Cl)cc3Cl)nn2)C1`, the MIC was 24.7 to 200 µM in assay [2], 24.7 to 200 µM (≈ 11.6 to 93.7 µg/mL) in assay [3] and 24.7 to 200 µM (≈ 11.6 to 93.7 µg/mL) in assay [4].

`O=C(NCCCn1ncc2ccc([N+](=O)[O-])cc21)N1C(=O)C(Cl)C1c1ccccc1Br` (stereo unspecified) had an MIC in assay [1] of 6.25 to 50 µg/mL (≈ 12.3 to 98.7 µM).

As for `COc1ccc(-n2cc(Cn3ncc4c3CCN(C(=O)Nc3ccccc3)C4)nn2)cc1OC`, the MIC in assay [2] lay within 24.7 to 200 µM; in assay [3] it was 24.7 to 200 µM (≈ 11.4 to 91.9 µg/mL); in assay [4], 24.7 to 200 µM (≈ 11.4 to 91.9 µg/mL).

In the case of `O=C(Nc1ccccc1)N1CCc2c(cnn2Cc2cn(-c3ccc(Br)cc3)nn2)C1`, the minimum inhibitory concentration (MIC) lay within 24.7 to 200 µM in assay [2], 24.7 to 200 µM (≈ 11.8 to 95.7 µg/mL) in assay [3] and 24.7 to 200 µM (≈ 11.8 to 95.7 µg/mL) in assay [4].

For `O=C(Nc1ccccc1)N1CCc2c(cnn2Cc2cn(-c3ccccc3[N+](=O)[O-])nn2)C1`, the MIC lay within 24.7 to 200 µM in assay [2], 24.7 to 200 µM (≈ 11 to 88.9 µg/mL) in assay [3] and 24.7 to 200 µM (≈ 11 to 88.9 µg/mL) in assay [4].

For `Cc1ccc(-n2cc(Cn3ncc4c3CCN(C(=O)Nc3ccccc3)C4)nn2)cc1C`, the MIC in assay [2] lay in the range of 24.7 to 200 µM; in assay [3], 24.7 to 200 µM (≈ 10.6 to 85.5 µg/mL); in assay [4], 24.7 to 200 µM (≈ 10.6 to 85.5 µg/mL).

For `O=C(Nc1ccccc1)N1CCc2c(cnn2Cc2cn(-c3ccc(I)cc3)nn2)C1`, the minimal inhibitory concentration (MIC) fell in the range of 24.7 to 200 µM in assay [2], 24.7 to 200 µM (≈ 13 to 105 µg/mL) in assay [3] and 24.7 to 200 µM (≈ 13 to 105 µg/mL) in assay [4].

For `O=C(Nc1ccccc1)N1CCc2c(cnn2Cc2cn(-c3ccc(F)c(F)c3)nn2)C1`, the MIC in assay [2] fell in the range of 24.7 to 200 µM; in assay [3], 24.7 to 200 µM (≈ 10.8 to 87.1 µg/mL); in assay [4], 24.7 to 200 µM (≈ 10.8 to 87.1 µg/mL).

On to `Cc1ccc(C2C(Cl)C(=O)N2C(=O)NCCCn2ncc3ccc([N+](=O)[O-])cc32)cc1` (stereo unspecified), for which, in assay [1], the minimum inhibitory concentration (MIC) is 6.25 to 50 µg/mL (≈ 14.1 to 113 µM).

Take `O=C(Nc1ccccc1)N1CCc2c(cnn2Cc2cn(-c3ccc([N+](=O)[O-])cc3)nn2)C1`: the MIC in assay [2] lay within 24.7 to 200 µM; in assay [3] it was 24.7 to 200 µM (≈ 11 to 88.9 µg/mL); in assay [4], 24.7 to 200 µM (≈ 11 to 88.9 µg/mL).

On to `O=C(Nc1ccccc1)N1CCc2c(cnn2Cc2cn(-c3ccc(F)c(Cl)c3)nn2)C1`, for which the MIC in assay [2] was in the range of 24.7 to 200 µM; in assay [3] it was 24.7 to 200 µM (≈ 11.2 to 90.4 µg/mL); in assay [4], 24.7 to 200 µM (≈ 11.2 to 90.4 µg/mL).

For `O=C(Nc1ccccc1)N1CCc2c(cnn2Cc2cn(-c3ccc(F)cc3)nn2)C1`, the results for the MIC in assay [2], in assay [3] and in assay [4] were 24.7 to 200 µM, 24.7 to 200 µM (≈ 10.3 to 83.5 µg/mL) and 24.7 to 200 µM (≈ 10.3 to 83.5 µg/mL), respectively.

In the case of `O=C(Nc1ccccc1)N1CCc2c(cnn2Cc2cn(-c3ccccc3)nn2)C1`, the MIC in assay [2] was in the range of 24.7 to 200 µM; in assay [3], 24.7 to 200 µM (≈ 9.87 to 79.9 µg/mL); in assay [4], 24.7 to 200 µM (≈ 9.87 to 79.9 µg/mL).

These data come from ChEMBL document CHEMBL4130388, “Recent advances of pyrazole-containing derivatives as anti-tubercular agents” (Eur J Med Chem, 2017).
